Tests used:
CK1δ [1] = biological target: T1, CK1δ (Homo sapiens, UniProt P48730); assay: in vitro radiometric kinase assay ([…]-ATP, CK1 peptide substrate); assay type: biochemical
T1 construct: gene CSNK1D

CK1δ [2] = biological target: T1, CK1δ; assay: in vitro radiometric kinase assay ([…]-ATP, CK1 peptide substrate); CRBN-dependent CK1δ degradation in cells; assay type: biochemical

T1 sequence (P48730 whole entry): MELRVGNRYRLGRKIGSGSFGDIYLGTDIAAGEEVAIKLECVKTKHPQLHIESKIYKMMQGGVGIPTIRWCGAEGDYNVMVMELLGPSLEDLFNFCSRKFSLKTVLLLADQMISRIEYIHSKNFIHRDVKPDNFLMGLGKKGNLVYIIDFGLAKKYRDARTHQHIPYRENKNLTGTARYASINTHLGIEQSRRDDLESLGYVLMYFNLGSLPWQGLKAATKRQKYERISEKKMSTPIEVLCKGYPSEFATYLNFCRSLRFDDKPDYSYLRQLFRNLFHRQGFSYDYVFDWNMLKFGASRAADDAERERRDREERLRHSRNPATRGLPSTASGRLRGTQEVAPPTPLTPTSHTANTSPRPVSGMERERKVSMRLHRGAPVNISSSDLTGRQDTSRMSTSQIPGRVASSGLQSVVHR

IC50 (CK1δ [1]) [nM] | IC50 (CK1δ [2]) [nM] | SMILES
3430 |  | Nc1ccc(Cn2c(SCC(=O)Nc3nc4ccc(C(F)(F)F)cc4s3)nccc2=O)cc1 [I9]
 | 2160 | O=C1CCC(N2C(=O)c3cccc(NCCCCCC(=O)Nc4ccc(Cn5c(SCC(=O)Nc6nc7ccc(C(F)(F)F)cc7s6)nccc5=O)cc4)c3C2=O)C(=O)N1 (stereo not shown) [P1d]
1960 |  | O=C1CCC(N2C(=O)c3cccc(OCCCOCCC(=O)Nc4ccc(Cn5c(SCC(=O)Nc6nc7ccc(C(F)(F)F)cc7s6)nccc5=O)cc4)c3C2=O)C(=O)N1 (stereo not shown) [P3d]
~2200 |  | O=C1CCC(N2C(=O)c3ccc(OCCCOCCC(=O)Nc4ccc(Cn5c(SCC(=O)Nc6nc7ccc(C(F)(F)F)cc7s6)nccc5=O)cc4)cc3C2=O)C(=O)N1 (stereo not shown) [P4d]

Reference: PMC12655757, “Design and Synthesis of Novel Candidate CK1δ Proteolysis Targeting Chimeras (PROTACs)” (Molecules, 2025)
